Results on 36 compounds are retold here after US10934304B2, “Spirocyclic compounds” (Recurium IP Holdings, LLC, priority 2016, dated 2021).

SMILES strings stand for the structures. A value given as a limit tells only on which side of the number the result lay.

A word on the IC50: it is the concentration at which inhibition is half-maximal.

Assay [1] deals with A375 (melanoma) cells. Description: Proliferation Assay (CellTiter-Glo). It counts as cell-based. As to conditions: 3 days incubation, CellTiter-Glo luminescence. On the procedure:
A375 (melanoma), Colo-205 (colon cancer), Miapaca (pancreatic), HPAFII (pancreatic), sNF02.0 (neurofibromatosis type 1), sNF96.2 (neurofibromatosis type 1) and 8505 (Thyroid) cells were grown and maintained in RPMI-1640 medium containing 100 U/mL penicillin-streptomycin and 10% fetal bovine serum. Cells were in growth medium in 96-well opaque-walled clear bottom plates and incubated in the CO2 incubator overnight before treatment. Cells were treated with compounds diluted in DMSO and a 10 point 3-fold serial dilutions were done. Plates were placed in 37° C., 5% CO2 to incubate for 3 days. Before they were developed by adding 100 μL of CellTiter-Glo reagent (Promega) to the assay plate, plates were shaken briefly for 2 mins and allowed to incubate at room temperature for 10 mins. The bottom of the plates was pasted with white back seal and luminescence was recorded with Flexstation3 with setting of luminescence, integration time 500 ms.
Compounds of Formula (I), (II) and (III) are active in this assay as noted in Table 2.
For orientation: Cellular ATP, detected with luciferase, serves as a proxy for viable cell number.

Assay [2] addresses ERK2 (Homo sapiens (Human), UniProt P28482). Put plainly: Active ERK1 and ERK2 Kinase Assay (Mobility Shift Assay). As to conditions: activated ERK2, Mobility Shift Assay. It counts as biochemical. On the procedure: Activated ERK1 and ERK2 activity was determined in a Mobility Shift Assay (MSA) format as follows: Compound and kinase solution were prepared with assay buffer (20 mM HEPES, 0.01% Triton X-100, 2 mM DTT, pH7.5) and mixed and incubated in for 30 mins at rt. ERK1 & ERK2 were then activated by the addition of F1-Substrate, ATP and metal solution and incubated for 1 h at rt. After 1 h, the reaction was terminated by the addition of […] of Termination Buffer (QuickScout Screening Assist MSA; Carna Biosciences) to the well. The reaction mixture was applied to LabChip™ system (PerkinElmer), and the product and substrate peptide peaks were separated, analyzed and quantitated. The kinase reaction is evaluated by the product ratio calculated from peak heights of product (P) and substrate(S) peptides (P/(P+S)).

Chain of ERK2 (P28482 whole entry): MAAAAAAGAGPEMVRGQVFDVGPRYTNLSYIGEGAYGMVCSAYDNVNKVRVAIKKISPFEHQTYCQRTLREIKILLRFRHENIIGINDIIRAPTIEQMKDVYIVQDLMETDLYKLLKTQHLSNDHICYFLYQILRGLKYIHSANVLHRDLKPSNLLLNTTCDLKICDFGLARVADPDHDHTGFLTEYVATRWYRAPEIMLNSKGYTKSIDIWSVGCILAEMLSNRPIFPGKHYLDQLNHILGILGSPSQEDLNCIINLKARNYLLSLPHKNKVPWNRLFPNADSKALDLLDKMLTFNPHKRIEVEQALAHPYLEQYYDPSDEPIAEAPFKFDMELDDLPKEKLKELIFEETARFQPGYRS

Consider `Cn1cnc(-c2cnc(C3=CCN(C(=O)CN4CC[C@]5(CCN(c6ccc7[nH]nc(C8CCOCC8)c7n6)C5=O)C4)CC3)s2)n1` [Example 34], for which the IC50 in assay [1] (Homo sapiens, A-375, 72 h) is at most 500 nM; in assay [2], at most 50 nM.

As for `Cc1ccc(-c2n[nH]c3ccc(N4CC[C@]5(CCN(CC(=O)N6CC=C(c7ccc(-c8nn(C)c(=O)o8)cc7)CC6)C5)C4=O)nc23)cn1` [Example 35], the IC50 in assay [1] (Homo sapiens, A-375, 72 h) was at most 500 nM; in assay [2], at most 50 nM.

Turning to `COc1ccc(-c2n[nH]c3ccc(N4CC[C@]5(CCN(CC(=O)N6CC=C(c7ncc(-c8ncn(C)n8)s7)CC6)C5)C4=O)nc23)cn1` [Example 36], the IC50 in assay [1] (Homo sapiens, A-375, 72 h) was at most 500 nM; in assay [2] it was at most 50 nM.

Consider `Cn1cc(-c2n[nH]c3ccc(N4CC[C@]5(CCN(CC(=O)N6CC=C(c7ccc(-c8ncn(C)n8)cc7)CC6)C5)C4=O)nc23)cn1` [Example 37], for which the half-inhibitory concentration (IC50) in assay [1] (Homo sapiens, A-375, 72 h) was at most 500 nM; in assay [2], at most 50 nM.

`Cc1cc(-c2n[nH]c3ccc(N4CC[C@]5(CCN(CC(=O)N6CC=C(c7ccc(-c8ncn(C)n8)cc7)CC6)C5)C4=O)nc23)ccn1` [Example 38]: the IC50 in assay [1] (Homo sapiens, A-375, 72 h) is at most 500 nM; in assay [2], at most 50 nM.

As for `Cn1ccc(-c2n[nH]c3ccc(N4CC[C@]5(CCN(CC(=O)N6CC=C(c7ccc(-c8ncn(C)n8)cc7)CC6)C5)C4=O)nc23)n1` [Example 39], the half-inhibitory concentration (IC50) in assay [1] (Homo sapiens, A-375, 72 h) was at least 1000 nM; in assay [2] it was 50 to 250 nM.

For the compound `CC(C)n1cc(-c2n[nH]c3ccc(N4CC[C@]5(CCN(CC(=O)N6CC=C(c7ccc(-c8ncn(C)n8)cc7)CC6)C5)C4=O)nc23)cn1` [Example 40], the half-inhibitory concentration (IC50) in assay [1] (Homo sapiens, A-375, 72 h) was at most 500 nM; in assay [2], at most 50 nM.

Consider `CC(C)n1cc(-c2n[nH]c3ccc(N4CC[C@]5(CCN(CC(=O)N6CCN(c7ccc(-c8ncn(C)n8)cc7)CC6)C5)C4=O)nc23)cn1` [Example 41], for which the concentration for half-maximal inhibition (IC50) in assay [1] is at most 500 nM; in assay [2], at most 50 nM.

On to `Cn1cnc(-c2ccc(C3=CCN(C(=O)CN4CC[C@]5(CCN(c6ccc7[nH]nc(N8CCC9(CC8)COC9)c7n6)C5=O)C4)CC3)cc2)n1` [Example 42, (S)-2-(3-(2-oxa-7-azaspiro[3.5]nonan-7-yl)-1H-pyrazolo[4,3-b]pyridin-5-yl)-7-(2-(4-(4-(1-methyl-1H-1,2,4-triazol-3-yl)phenyl)-3,6-dihydropyridin-1(2H)-yl)-2-oxoethyl)-2,7-diazaspiro[4.4]nonan-1-one], for which the IC50 was at least 1000 nM in assay [1] (Homo sapiens, A-375, 72 h) and at least 250 nM in assay [2].

Regarding `Cc1ccc(-c2n[nH]c3ccc(N4CC[C@]5(CCN(CC(=O)N6CC=C(c7ncc(-c8ncn(C)n8)s7)CC6)C5)C4=O)nc23)cn1` [Example 43], the figures for the IC50 in assay [1] and in assay [2] were at most 500 nM and at most 50 nM, respectively.

As for `Cc1cc(-c2n[nH]c3ccc(N4CC[C@]5(CCN(CC(=O)N6CCN(c7ccc(-c8ncn(C)n8)cn7)CC6)C5)C4=O)nc23)ccn1` [Example 44], the IC50 was at most 500 nM in assay [1] and at most 50 nM in assay [2].

Turning to `Cn1cnc(-c2ccc(N3CCN(C(=O)CN4CC[C@]5(CCN(c6ccc7[nH]nc(-c8ccc(F)cc8)c7n6)C5=O)C4)CC3)nc2)n1` [Example 45], the IC50 in assay [1] is at most 500 nM; in assay [2], at most 50 nM.

As for `COc1ccc(-c2n[nH]c3ccc(N4CC[C@]5(CCN(CC(=O)N6CCN(c7ccc(-c8ncn(C)n8)cn7)CC6)C5)C4=O)nc23)cn1` [Example 46], the results for the half-maximal inhibitory concentration (IC50) in assay [1] and in assay [2] were at most 500 nM and at most 50 nM, respectively.

For `Cn1cnc(-c2cnc(C3=CCN(C(=O)CN4CC[C@]5(CCN(c6ccc7[nH]nc(-c8ccc(F)cc8)c7n6)C5=O)C4)CC3)s2)n1` [Example 47], the half-inhibitory concentration (IC50) is at most 500 nM in assay [1] and at most 50 nM in assay [2].

Turning to `C[C@@H]1CN(c2n[nH]c3ccc(N4CC[C@]5(CCN(CC(=O)N6CC=C(c7ccc(-c8ncn(C)n8)cc7)CC6)C5)C4=O)nc23)C[C@H](C)O1` [Example 48], the IC50 in assay [1] is 500 to 1000 nM; in assay [2], at most 50 nM.

In the case of `Cn1cnc(-c2ccc(C3=CCN(C(=O)CN4CCC5(CCN(c6ccc7[nH]nc(N8CCOCC8)c7n6)C5=O)C4)CC3)cc2)n1` (stereo not drawn) [Example 49], the results for the IC50 in assay [1] and in assay [2] were at most 500 nM and at most 50 nM, respectively.

On to `Cn1cnc(-c2ccc(C3=CCN(C(=O)CN4CC[C@]5(CCN(c6ccc7[nH]nc(-c8ccc(F)cn8)c7n6)C5=O)C4)CC3)cc2)n1` [Example 50], for which the IC50 in assay [1] was 500 to 1000 nM; in assay [2] it was at most 50 nM.

For `Cn1cnc(-c2ccc(C3=CCN(C(=O)CN4CC[C@]5(CCN(c6ccc7[nH]nc(-c8ccc(C#N)cn8)c7n6)C5=O)C4)CC3)cc2)n1` [Example 51], the results for the concentration for half-maximal inhibition (IC50) in assay [1] and in assay [2] were at most 500 nM and at most 50 nM, respectively.

For `CC1CC(c2n[nH]c3ccc(N4CCC5(CCN(CC(=O)N6CC=C(c7ccc(-c8nn(C)c(=O)o8)cc7)CC6)C5)C4=O)nc23)CC(C)O1` (stereo not drawn) [Example 52], the half-inhibitory concentration (IC50) in assay [1] is at most 500 nM; in assay [2] it was at most 50 nM.

For `Cn1cnc(-c2cnc(C3=CCN(C(=O)CN4CC[C@]5(CCN(c6ccc7[nH]nc(-c8ccc(F)cn8)c7c6)C5=O)C4)CC3)s2)n1` [Example 54], the IC50 in assay [1] was at most 500 nM; in assay [2] it was at most 50 nM.

Turning to `Cn1cnc(-c2ccc(C3=CCN(C(=O)CN4CC[C@]5(CCN(c6ccc7[nH]nc(-c8ccc(F)cn8)c7c6)C5=O)C4)CC3)s2)n1` [Example 55], the half-maximal inhibitory concentration (IC50) in assay [1] is at most 500 nM; in assay [2] it was at most 50 nM.

As for `Cn1cnc(-c2ccc(N3CCN(C(=O)CN4CC[C@]5(CCN(c6ccc7[nH]nc(-c8ccc(F)cn8)c7c6)C5=O)C4)CC3)cc2)n1` [Example 56], the results for the IC50 in assay [1] and in assay [2] were at most 500 nM and at most 50 nM, respectively.

As for `Cn1cnc(-c2ccc(N3CCN(C(=O)CN4CC[C@]5(CCN(c6ccc7[nH]nc(-c8ccc(F)cn8)c7c6)C5=O)C4)CC3)nc2)n1` [Example 57], the concentration for half-maximal inhibition (IC50) is at most 500 nM in assay [1] and at most 50 nM in assay [2].

Consider `Cn1cnc(-c2ccc(C3=CCN(C(=O)CN4CC[C@]5(CCN(c6ccc7[nH]nc(-c8cnn(C)n8)c7c6)C5=O)C4)CC3)cc2)n1` [Example 58, (S)-7-(2-(4-(4-(1-methyl-1H-1,2,4-triazol-3-yl)phenyl)-3,6-dihydropyridin-1(2H)-yl)-2-oxoethyl)-2-(3-(2-methyl-2H-1,2,3-triazol-4-yl)-1H-indazol-5-yl)-2,7-diazaspiro[4.4]nonan-1-one], for which the IC50 in assay [1] (Homo sapiens, A-375, 72 h) is at most 500 nM; in assay [2] it was at most 50 nM.

`Cn1cnc(-c2ccc(C3=CCN(C(=O)CN4CC[C@]5(CCN(c6ccc7[nH]nc(-c8cnn(C)n8)c7n6)C5=O)C4)CC3)cc2)n1` [Example 59]: the results for the IC50 in assay [1] and in assay [2] were 500 to 1000 nM and at most 50 nM, respectively.

Regarding `COc1ccc(-c2n[nH]c3ccc(N4CC[C@]5(CCN(CC(=O)N6CC=C(c7ccc(-c8ncn(C)n8)cc7)CC6)C5)C4=O)cc23)nc1` [Example 60], the IC50 in assay [1] is at most 500 nM; in assay [2], at most 50 nM.

Take `COc1cccc(-c2n[nH]c3ccc(N4CC[C@]5(CCN(CC(=O)N6CC=C(c7ccc(-c8ncn(C)n8)cc7)CC6)C5)C4=O)cc23)n1` [Example 61]: the 50% inhibitory concentration (IC50) is at most 500 nM in assay [1] and at most 50 nM in assay [2].

For the compound `Cn1cnc(-c2ccc(C3=CCN(C(=O)CN4CC[C@]5(CCN(c6ccc7[nH]nc(-c8ccc9c(c8)OC(C)(C)O9)c7n6)C5=O)C4)CC3)cc2)n1` [Example 62], the figures for the IC50 in assay [1] and in assay [2] were 500 to 1000 nM and at most 50 nM, respectively.

Take `COc1ccc(-c2n[nH]c3ccc(N4CC[C@]5(CCN(CC(=O)N6CC=C(c7ccc(-c8ncn(C)n8)cc7)CC6)C5)C4=O)nc23)cc1` [Example 63]: the values for the concentration for half-maximal inhibition (IC50) in assay [1] and in assay [2] were at most 500 nM and at most 50 nM, respectively.

As for `Cn1cnc(-c2ccc(C3=CCN(C(=O)CN4CC[C@]5(CCN(c6ccc7[nH]nc(C8CCOCC8)c7n6)C5=O)C4)CC3)s2)n1` [Example 64], the concentration for half-maximal inhibition (IC50) was at most 500 nM in assay [1] and at most 50 nM in assay [2].

As for `CC(C)Oc1ccc(-c2n[nH]c3ccc(N4CC[C@]5(CCN(CC(=O)N6CC=C(c7ccc(-c8ncn(C)n8)s7)CC6)C5)C4=O)nc23)cn1` [Example 65], the values for the IC50 in assay [1] and in assay [2] were at most 500 nM and at most 50 nM, respectively.

As to `COc1ccc(-c2n[nH]c3ccc(N4CC[C@]5(CCN(CC(=O)N6CC=C(c7ccc(-c8ncn(C)n8)s7)CC6)C5)C4=O)nc23)cn1` [Example 66], the values for the IC50 in assay [1] and in assay [2] were at most 500 nM and at most 50 nM, respectively.

For `Cn1cnc(-c2ccc(C3=CCN(C(=O)CN4CC[C@]5(CCN(c6ccc7[nH]nc(-c8ccc(OC9CC9)nc8)c7n6)C5=O)C4)CC3)cc2)n1` [Example 67], the IC50 was at most 500 nM in assay [1] and at most 50 nM in assay [2].

On to `Cn1cnc(-c2ccc(C3=CCN(C(=O)CN4CC[C@]5(CCN(c6ccc7[nH]nc(-c8ccc(Cl)cc8)c7n6)C5=O)C4)CC3)cc2)n1` [Example 68], for which the values for the IC50 in assay [1] and in assay [2] were at most 500 nM and at most 50 nM, respectively.

For the compound `Cn1cnc(-c2ccc(C3=CCN(C(=O)CN4CC[C@]5(CCN(c6ccc7[nH]nc(-c8ccc(Cl)cc8F)c7n6)C5=O)C4)CC3)cc2)n1` [Example 69], the IC50 is 500 to 1000 nM in assay [1] and at most 50 nM in assay [2].

Turning to `CC(C)Oc1ccc(-c2n[nH]c3ccc(N4CC[C@]5(CCN(CC(=O)N6CCC(c7ccc(-c8ncn(C)n8)cc7)CC6)C5)C4=O)nc23)cn1` [Example 71], the IC50 in assay [1] is 500 to 1000 nM; in assay [2], at most 50 nM.
